Data from US11286263B2, “Macrocyclic fluorine substituted indole derivatives” (The Broad Institute, Inc., priority 2017, dated 2022).
“And” between values parts separate entries of the source, which are not always exact repeats. Equal values may be shown once. Where a name gives a salt, the structure may show the parent alone. Read-outs that look alike come from different tables or passages of the source.

Key:
[1] = target: BCL-XL (Homo sapiens (Human), UniProt Q07817); assay: Protein-protein interaction assay BCL-XL/Bad BH3 peptide (BCL-XL assay), TR-FRET; format: binding; conditions: median
BCL-XL, sequence (Q07817 1-212): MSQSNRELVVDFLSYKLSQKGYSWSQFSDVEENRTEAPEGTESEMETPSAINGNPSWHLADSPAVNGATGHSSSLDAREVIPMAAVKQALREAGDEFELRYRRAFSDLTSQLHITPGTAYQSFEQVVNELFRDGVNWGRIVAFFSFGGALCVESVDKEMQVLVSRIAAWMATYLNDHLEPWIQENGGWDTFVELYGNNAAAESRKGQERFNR
Protocol: Assay 2 Protein-Protein Interaction Assay: BCL-XL/Bad BH3 Peptide (BCL-XL Assay)
The dose-dependent inhibition by the compounds described in this invention of the interaction between BCL-XL and the BH3 domain of Bad (both human) was determined using a steady state binding competition assay with time-resolved fluorescence energy transfer (TR-FRET) readout. For that purpose BCL-XL (amino acids 1-212, C-terminal fused to a hexahistidine (6× His) tag (SEQ ID 3) and a synthetic Bad BH3-derived peptide of sequence Biotin-PEG2-PEG2-NLWAAQRYGRELRR-Nle-SDEFVDSFKK-amide (SEQ ID 4) served as protein receptor and tracer ligand respectively. The recombinant BCL-XL protein (expressed in Ecol) was purchased from BPS Bioscience (San Diego, Calif., USA). The Bad BH3-derived peptide can be obtained from e.g. Biosyntan (Berlin, Germany).
In the assay 11 different concentrations of each compound (0.1 nM, 0.33 nM, 1.1 nM, 3.8 nM, 13 nM, 44 nM, 0.15 μM, 0.51 μM, 1.7 μM, 5.9 μM and 20 μM) were typically measured as duplicates in the same microtiter plate. For that, 100-fold concentrated DMSO solutions were prepared by serial dilutions (1:3.4) of a 2 mM stock solution in a clear, 384-well microtiter plate (Greiner Bio-One, Frickenhausen, Germany). From there, 50 nl were transferred in a dark test plate (Greiner Bio-One, Frickenhausen, Germany). The assay was initiated by addition of 2 μl of a 2,5-fold concentrated His-BCL-XL solution (usually for a 1 nM end concentration in 5 μl reaction volume) in aqueous assay buffer [50 mM Tris/HCl pH 7, 100 mM sodium chloride (NaCl), 50 μM potassium fluoride (KF), 0.005% Tween-20, 2 mM DTT, 0.1% bovine gamma globulin (BGG)] to the compounds in the assay plate. This was followed by a 10-minute incubation step at 22° C. for pre-equilibration of the putative complex between His-BCL-XL and the compounds. After that, 3 μl of a 1.67-fold concentrated solution (in assay buffer) consisting of Bad BH3-derived peptide (1 nM end concentration) and TR-FRET detection reagents [1.67 nM anti-His-Eu cryptate and 1.67 nM streptavidin-XL665 (both from Cisbio Bioassays, Codolet, France)], were added.
The mixture was incubated in the dark for one hour at 22° C. and then overnight at 4° C. The formation of BCL-XL/Bad complexes was determined by measuring the resonance energy transfer of the anti-His-Eu-cryptate antibody to the streptavidin-XL665 present in the reaction. For that purpose, the fluorescence emission at 620 nm and 665 nm after excitation at 330-350 nm was measured in a TR-FRET measuring instrument, for instance a Rubystar or a Pherastar (both from BMG Lab Technologies, Offenburg, Germany) or a Viewlux (Perkin-Elmer). The ratio of the emission at 665 nm and at 622 nm was used as indicator of the amount of BCL-XL/Bad complexes present.
The resulting data (ratio) were normalized, taking 0% inhibition as the mean value of control measurements (usually 32 data points) where all reagents were included. In this case 50 nl DMSO were used instead of compounds. A 100% inhibition corresponded to the mean value of control measurements (usually 32 data points) where all reagents except BCL-XL were included. IC50 values were determined by regression analysis based on a 4 parameter equation (minimum, maximum, IC50, Hill; Y=Max+(Min−Max)/(1+(X/IC50)^Hill) using the Screener Software (Genedata).

[2] = test system: AMO-1; assay: Antiproliferation assay AMO-1 (Assay 7); format: cell-based; conditions: AMO-1 cells, CellTiter-Glo, single determinations, read-out: IC50 Antiproli AMO-1
Procedure, shortened: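 A reference plate measured at day 0 set the time-zero baseline. Treated plates were read by CellTiter-Glo luminescence after 72 h of compound exposure at 37°C in a humidified incubator.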

Row | SMILES | IC50 [1] | also measured
1 | Cc1c2c(nn1C)COC/C=C\Cn1c(C(=O)O)c(CCCOc3cccc4ccccc34)c3ccc(F)c-2c31 (racemic) [Example 1, (rac)-(11Z)-4-fluoro-2,3-dimethyl-7-[3-(naphthalen-1-yloxy)propyl]-2,10,13,15-tetrahydro-pyrazolo[4′,3′:9,10][1,6]oxazacycloundecino[8,7,6-hi]indole-8-carboxylic acid] | > 20000 nM | –
2 | Cc1c2c(nn1C)COCCCCn1c(C(=O)O)c(CCCOc3cccc4ccccc34)c3ccc(F)c-2c31 (racemic) [Example 2, (rac)-4-fluoro-2,3-dimethyl-7-[3-(naphthalen-1-yloxy)propyl]-2,10,11,12,13,15-hexahydro-pyrazolo[4′,3′:9,10][1,6]oxazacycloundecino[8,7,6-hi]indole-8-carboxylic acid] | – | IC50 ([2]; 72 h, listed as 02): 1910 nM; IC50 ([2]; Homo sapiens, AMO1, 72 h): 2460 nM
3 | CCc1c2c(nn1C)COC/C=C\Cn1c(C(=O)O)c(CCCOc3cccc4ccccc34)c3ccc(F)c-2c31 (racemic) [Example 5, (rac)-(11Z)-3-ethyl-4-fluoro-2-methyl-7-[3-(naphthalen-1-yloxy)propyl]-2,10,13,15-tetrahydro-pyrazolo[4′,3′:9,10][1,6]oxazacycloundecino[8,7,6-hi]indole-8-carboxylic acid] | > 20000 nM | –
4 | Cc1nn(C)c2c1-c1c(F)ccc3c(CCCOc4cccc5ccccc45)c(C(=O)O)n(c13)C/C=C\COC2 (racemic) [Example 9, (rac)-(Z)-13-fluoro-10,12-dimethyl-1-(3-(naphthalen-1-yloxy)propyl)-4,7,9,10-tetrahydro-pyrazolo[4′,3′:9,10][1]oxa[6]azacycloundecino[8,7,6-hi]indole-2-carboxylic acid] | > 20000 nM | –
5 | Cc1nn(C)c2c1-c1c(F)ccc3c(CCCOc4cccc5ccccc45)c(C(=O)O)n(c13)CCCCOC2 (racemic) [Example 10, (rac)-13-fluoro-10,12-dimethyl-1-(3-(naphthalen-1-yloxy)propyl)-4,5,6,7,9,10-hexahydro-pyrazolo[4′,3′:9,10][1]oxa[6]azacycloundecino[8,7,6-hi]indole-2-carboxylic acid] | > 20000 nM | –
6 | CCc1nn(C)c2c1-c1c(F)ccc3c(CCCOc4cccc5ccccc45)c(C(=O)O)n(c13)C/C=C\COC2 (racemic) [Example 11, (rac)-(Z)-12-ethyl-13-fluoro-10-methyl-1-(3-(naphthalen-1-yloxy)propyl)-4,7,9,10-tetrahydro-pyrazolo[4′,3′:9,10][1]oxa[6]azacycloundecino[8,7,6-hi]indole-2-carboxylic acid] | > 20000 nM | –
7 | Cc1c2c(nn1C)COCCCCn1c(C(=O)O)c(CCCOc3ccc(F)c4ccccc34)c3ccc(F)c-2c31 (racemic) [Example 15, (rac)-13-fluoro-1-(3-((4-fluoronaphthalen-1-yl)oxy)propyl)-11,12-dimethyl-4,5,6,7,9,11-hexahydropyrazolo[4′,3′:9,10][1]oxa[6]azacycloundecino[8,7,6-hi]indole-2-carboxylic acid] | > 20000 nM | –
8 | Cc1cc(OCCCc2c(C(=O)O)n3c4c(c(F)ccc24)-c2c(nn(C)c2C)COCCCC3)cc(C)c1Cl (racemic) [Example 20, (rac)-1-(3-(4-chloro-3,5-dimethylphenoxy)propyl)-13-fluoro-11,12-dimethyl-4,5,6,7,9,11-hexahydropyrazolo[4′,3′:9,10][1]oxa[6]azacycloundecino[8,7,6-hi]indole-2-carboxylic acid] | > 20000 nM | –
9 | Cc1nn(C)c2c1-c1c(F)ccc3c(CCCOc4ccc(F)c5ccccc45)c(C(=O)O)n(c13)CCCCOC2 (racemic) [Example 33, (rac)-13-fluoro-1-(3-((4-fluoronaphthalen-1-yl)oxy)propyl)-10,12-dimethyl-4,5,6,7,9,10-hexahydropyrazolo[4′,3′:9,10][1]oxa[6]azacycloundecino[8,7,6-hi]indole-2-carboxylic acid] | > 20000 nM | –
10 | Cc1nn(C)c2c1-c1c(F)ccc3c(CCCOc4cccc5c4CCC5)c(C(=O)O)n(c13)CCCCOC2 (racemic) [Example 35, (rac)-1-(3-((2,3-dihydro-1H-inden-4-yl)oxy)propyl)-13-fluoro-10,12-dimethyl-4,5,6,7,9,10-hexahydropyrazolo[4′,3′:9,10][1]oxa[6]azacycloundecino[8,7,6-hi]indole-2-carboxylic acid] | > 20000 nM | –
11 | Cc1cc(OCCCc2c(C(=O)O)n3c4c(c(F)ccc24)-c2c(C)nn(C)c2COCCCC3)cc(C)c1Cl (racemic) [Example 36, (rac)-1-(3-(4-chloro-3,5-dimethylphenoxy)propyl)-13-fluoro-10,12-dimethyl-4,5,6,7,9,10-hexahydropyrazolo[4′,3′:9,10][1]oxa[6]azacycloundecino[8,7,6-hi]indole-2-carboxylic acid] | > 20000 nM | –
12 | Cc1c2c(nn1C)COCCCCn1c(C(=O)O)c(CCCOc3cccc4ccccc34)c3ccc(F)c-2c31 (single isomer, unassigned; enantiomer 1) [Example 3, 4-fluoro-2,3-dimethyl-7-[3-(naphthalen-1-yloxy)propyl]-2,10,11,12,13,15-hexahydropyrazolo-[4′,3′:9,10][1,6]oxazacycloundecino[8,7,6-hi]indole-8-carboxylic acid-N-ethylethanamine salt (enantiomer 1)] | – | IC50 ([2]; Homo sapiens, AMO1, 72 h): 2000 nM
13 | CCc1c2c(nn1C)COCCCCn1c(C(=O)O)c(CCCOc3cccc4ccccc34)c3ccc(F)c-2c31 (single isomer, unassigned; enantiomer 1) [Example 7, 3-ethyl-4-fluoro-2-methyl-7-{3-[(naphthalen-1-yl)oxy]propyl}-2,10,11,12,13,15-hexahydro-pyrazolo[4′,3′:9,10][1,6]oxazacycloundecino[8,7,6-hi]indole-8-carboxylic acid-N-ethylethanamine salt (enantiomer 1)] | – | IC50 ([2]; Homo sapiens, AMO1, 72 h): 1910 nM
14 | Cc1c2c(nn1C)COCCCCn1c(C(=O)O)c(CCCOc3cccc4cc(F)ccc34)c3ccc(F)c-2c31 (single isomer, unassigned; enantiomer 1) [Example 13, 4-fluoro-7-{3-[(6-fluoronaphthalen-1-yl)oxy]propyl}-2,3-dimethyl-2,10,11,12,13,15-hexahydro-pyrazolo[4′,3′:9,10][1,6]oxazacycloundecino[8,7,6-hi]indole-8-carboxylic acid-N-ethylethanamine salt (enantiomer 1)] | – | IC50 ([2]; 72 h): 747 nM and 564 nM
15 | CCc1c2c(nn1C)COCCCCn1c(C(=O)O)c(CCCOc3ccc(F)c4ccccc34)c3ccc(F)c-2c31 (single isomer, unassigned; enantiomer 1) [Example 27, 3-ethyl-4-fluoro-7-{3-[(4-fluoronaphthalen-1-yl)oxy]propyl}-2-methyl-2,10,11,12,13,15-hexahydropyrazolo[4′,3′:9,10][1,6]oxazacycloundecino[8,7,6-hi]indole-8-carboxylic acid-N-ethylethanamine salt (enantiomer 1)] | – | IC50 ([2]; 72 h): 1330 nM and 2530 nM
16 | CCc1nn(C)c2c1-c1c(F)ccc3c(CCCOc4cccc5cc(F)ccc45)c(C(=O)O)n(c13)CCCCOC2 (single isomer, unassigned; enantiomer 1) [Example 39, 3-ethyl-4-fluoro-7-{3-[(6-fluoronaphthalen-1-yl)oxy]propyl}-1-methyl-1,10,11,12,13,15-hexahydropyrazolo[4′,3′:9,10][1,6]oxazacycloundecino[8,7,6-hi]indole-8-carboxylic acid-N-ethylethanamine salt (enantiomer 1)] | – | IC50 ([2]; 72 h): 1720 nM
